Test results reported in ChEMBL document CHEMBL3994661, “Mycobacterium tuberculosis chorismate mutase: A potential target for TB” (Bioorg Med Chem, 2017).
Converted amounts (≈) assume the structure as drawn.

Columns and labels:
[1] = Inhibition of Mycobacterium tuberculosis H37Rv chorismate mutase assessed as reduction in conversion of chorismate to prephenate using chorismic acid as substrate by spectrophotometric method
[2] = Inhibition of Escherichia coli chorismate mutase
Escherichia coli [3] = experiment: Inhibition of Escherichia coli chorismate mutase assessed as ratio of I50 to chorismate Km
[4] = Inhibition of Mycobacterium tuberculosis chorismate mutase assessed as reduction in conversion of chorismate to prephenate using chorismic acid as substrate after 5 mins by spectrophotometric method
[5] = system: Mycobacterium tuberculosis; experiment: Antibacterial activity against Mycobacterium tuberculosis H37Rv after 7 days by microplate alamar blue assay; format: functional; settings: 168 h
Escherichia coli [6] = experiment: Inhibition of Escherichia coli chorismate mutase assessed as ratio of IC50 to chorismate Km
[7] = Competitive inhibition of Escherichia coli chorismate mutase using varying levels of chorismic acid as substrate by Lineweaver-burk plot method
[8] = system: Mycobacterium tuberculosis; experiment: Inhibition of Mycobacterium tuberculosis chorismate mutase expressed in Escherichia coli BL21 (DE3) assessed as reduction in conversion of chorismate to prephenate at 30 uM using chorismic acid as substrate after 5 mins by spectrophotometric method relative to control
[9] = Inhibition of Mycobacterium tuberculosis chorismate mutase assessed as reduction in conversion of chorismate to prephenate using chorismate as substrate after 1 to 5 mins
[10] = Competitive inhibition of Bacillus subtilis chorismate mutase using varying levels of chorismic acid as substrate

CCOC(=O)C1=C(C)NC(=O)N[C@H]1c1ccccc1C#CCCO gave an IC50 [1] of 14.8 µM.

O=C(O)C1CC2CC(C(=O)O)(C=CC2O)C1 (stereo in doubt; 17) [listing 1 of 2 here] showed an IC50 [2] of 500 µM.

For O=C(O)C12CC3CC(C(=O)O)(C1)C2CC3O (stereo not given), the Ratio (Escherichia coli [3]) was 5.6 and the IC50 [2] was 500 µM.

In the case of O=C(O)C1CC2CC(C(=O)O)(C=CC2O)C1 (stereo in doubt; 17) [listing 2 of 2 here], the Ratio (Escherichia coli [3]) is reported as 5.6.

O=C1Nc2ccccc2/C1=C/c1ccc([N+](=O)[O-])cc1 gave an IC50 [4] of 1.01 µM and an MIC [5] of 23.5 µM (≈ 6.26 µg/mL).

In the case of O=C1OC2CC3(C(=O)O)CC1NC(C3)C2O (stereo not given), the Ratio (Escherichia coli [6]) is reported as over 50.

Compound O=C1Nc2ccccc2C1=O [ISATIN] has an MIC [5] of 340 µM (≈ 50 µg/mL).

Compound O=C1OC2CC3(C(=O)O)CC1N1C(C3)C21 (stereo not given) has a Ratio (Escherichia coli [6]) of 42.

In the case of O=C(O)C1CC2CC(C(=O)O)(C=CC2O)C1 (stereo in doubt; 16) [listing 1 of 2 here], the Ratio (Escherichia coli [3]) is reported as 4.8.

For O=C(O)c1cccc([N+](=O)[O-])c1-c1c(C(=O)O)cccc1[N+](=O)[O-], the Ki [7] was 13 µM.

For O=C(O)C1CC2CC(C(=O)O)(C=CC2O)C1 (stereo in doubt; 16) [listing 2 of 2 here], the IC50 [2] was 430 µM.

Work on O=C(O)C1CC2(C(=O)O)C=CC(O)C(C2)N1 (stereo in doubt; 23) yielded a Ratio (Escherichia coli [6]) of 18.

With CC(=O)c1c(C(C)(C)C)[nH]c2c(S(C)(=O)=O)cc(Cl)cc12 the inhibition [8] was 45%.

With Cc1ccc(C(C)C)cc1O [CARVACROL] the IC50 [9] was 1.06 µM.

In the case of O=C(O)C1CC2(C(=O)O)C=CC3C(C2)N13 (stereo not given), the Ratio (Escherichia coli [6]) is reported as over 20.

Compound O=C(O)C1CC2(C(=O)O)C=CC(O)C(C2)N1 (stereo in doubt; 22) has a Ratio (Escherichia coli [6]) of 1.2.

Compound O=C(O)C1CC2(C(=O)O)C=CC(O)C(C2)O1 (stereo not given) has a Ratio (Escherichia coli [6]) of 0.007.

For O=C(O)C1CC2([N+](=O)[O-])C=CC(O)C(C2)O1 (stereo not given), the Ki [10] was 0.3 µM.
